In patent US8859543B2, “Imidazo[1,2-a]pyrazine derivatives and their use for the prevention or treatment of neurological, psychiatric and metabolic disorders and diseases” (Janssen Pharmaceutica NV, priority 2010, dated 2014) one finds IC50 and ED50 data, which are given here for one compound.

SMILES strings stand for the structures.

Experiment [1] has as its target PDE3A (Homo sapiens, UniProt Q14432). Nature of the experiment: In vitro PDE selectivity assay, PDE3A. It is filed as biochemical. The following applies: Table 4a in vitro selectivity; read-out: IC50 PDE type 3A. As for the experimental part:
(§1) Rat recombinant PDE10A (rPDE10A2) was expressed in Sf9 cells using a recombinant rPDE10A baculovirus construct. Cells were harvested after 48 h of infection and the rPDE10A protein was purified by metal chelate chromatography on Ni-sepharose 6FF. […] The reaction was incubated for 60 min. at RT. […] After sedimentation of the beads during 30 min. the radioactivity was measured in a Perkin Elmer Topcount scintillation counter and results were expressed as cpm. For blank values the enzyme was omitted from the reaction and replaced by incubation buffer. […] The same assay principle is applied for the measurement of the affinity of the compound for other members of the PDE family with appropriate modifications in incubation buffer, substrate concentration, incubation time and stop solution.

In experiment [2] the target is PDE5A (Homo sapiens, UniProt O76074). Nature of the experiment: In vitro PDE selectivity assay, PDE5A. The following applies: Table 4a in vitro selectivity; read-out: IC50 PDE type 5A. It is filed as biochemical. The method, then:
as §1

Experiment [3] concerns the target PDE6AB (Homo sapiens, UniProt P16499+P35913). Nature of the experiment: In vitro PDE selectivity assay, PDE6AB. The experiment is classed as biochemical. The following applies: Table 4a in vitro selectivity; read-out: IC50 PDE type 6AB. As for the experimental part:
as §1

Experiment [4] relates to apomorphine-induced stereotypy. Nature of the experiment: Apomorphine-induced stereotypy in rats (APO). It is filed as in vivo. The following applies: Rattus norvegicus, read-out: APO ED50. The method, then:
Apomorphine-Induced Stereotypy in Rats (APO)
Apomorphine (1.0 mg/kg, i.v.)-induced stereotypy (compulsive sniffing, licking, chewing) was scored every 5 min. over the first hour after injection of apomorphine, following a 1 hour interval pre-treatment with the test compound. The score system was: (3) pronounced, (2) moderate, (1) slight, and (O) absent.

Experiment [5] relates to PCP-induced hyperlocomotion. Description: PCP-induced hyperlocomotion in rats (PCP). The following applies: Rattus norvegicus. The experiment is classed as in vivo.
In experiment [6] the test system is conditioned avoidance response. Description: Conditioned avoidance response (CAR) test. The following applies: Rattus norvegicus. The experiment is classed as in vivo. From the text: Conditioned Avoidance Response (CAR) Test
The apparatus consisted of an inner box surrounded by an outer box. The inner box was composed of four walls of transparent, synthetic material (length×width×height: 30×30×30 cm), an open top, and a grid floor made of 15 pairs of iron bars (2 mm diameter; 6 mm inter-bar distance). Odd and even bars were connected with a source of alternative current (1.0 mA; Coulbourn Instruments Solid State Shocker/Distributor), which could be interrupted by a switch. The outer box was composed of the same material (length×width×height: 40×40×36 cm), also with an open top, with a distance of 5 cm between the inner and outer box on all sides. To decrease the amount of environmental stimuli, three walls of the outer box were made non-transparent. The front wall was left transparent to allow the necessary inspection of the animal during the test. The upper edge of the outer and inner box served as a target for the rats on which to jump with fore- and hind-paws, respectively.
From their arrival in the laboratory on the experimental day, male Wiga Wistar rats (230±30 g) were housed in individual cages provided with bedding material.
The rats were tested 3 times, i.e. at 60, 90 and 120 min after the injection of test compound or solvent. Latency to avoidance was recorded. The median avoidance response obtained over the three experimental sessions for each rat were used for further calculations.

Sequence of PDE3A (Q14432 whole entry): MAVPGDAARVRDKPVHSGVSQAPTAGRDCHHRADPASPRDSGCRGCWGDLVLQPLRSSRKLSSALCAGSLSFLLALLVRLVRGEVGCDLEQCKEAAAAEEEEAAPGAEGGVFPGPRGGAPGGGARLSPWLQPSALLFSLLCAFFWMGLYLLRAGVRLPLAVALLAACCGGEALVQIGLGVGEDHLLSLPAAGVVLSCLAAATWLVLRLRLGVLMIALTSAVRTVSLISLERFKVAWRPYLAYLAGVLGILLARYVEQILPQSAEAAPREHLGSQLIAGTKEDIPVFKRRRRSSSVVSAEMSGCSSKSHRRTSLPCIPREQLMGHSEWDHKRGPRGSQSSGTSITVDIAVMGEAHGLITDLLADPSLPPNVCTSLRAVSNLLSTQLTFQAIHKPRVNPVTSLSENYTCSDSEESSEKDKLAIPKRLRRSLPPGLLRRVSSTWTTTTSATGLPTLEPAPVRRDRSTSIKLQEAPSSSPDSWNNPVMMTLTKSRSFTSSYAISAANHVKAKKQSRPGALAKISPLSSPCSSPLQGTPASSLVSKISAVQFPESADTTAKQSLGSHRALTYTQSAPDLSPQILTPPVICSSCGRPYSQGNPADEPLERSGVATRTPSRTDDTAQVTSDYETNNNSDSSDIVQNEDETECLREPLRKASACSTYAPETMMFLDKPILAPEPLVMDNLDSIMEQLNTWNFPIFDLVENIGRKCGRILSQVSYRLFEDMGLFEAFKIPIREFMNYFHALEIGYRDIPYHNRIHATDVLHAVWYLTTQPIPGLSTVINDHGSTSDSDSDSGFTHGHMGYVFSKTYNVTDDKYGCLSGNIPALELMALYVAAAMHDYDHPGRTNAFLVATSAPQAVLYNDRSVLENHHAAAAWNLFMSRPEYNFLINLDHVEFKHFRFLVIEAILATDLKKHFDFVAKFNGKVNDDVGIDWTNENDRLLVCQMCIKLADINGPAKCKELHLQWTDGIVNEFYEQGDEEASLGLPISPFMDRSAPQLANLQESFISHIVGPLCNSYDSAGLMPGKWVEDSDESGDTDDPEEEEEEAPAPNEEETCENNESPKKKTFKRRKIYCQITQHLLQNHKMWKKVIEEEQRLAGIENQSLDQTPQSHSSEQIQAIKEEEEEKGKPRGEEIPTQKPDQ
Sequence of PDE6AB (P16499 whole entry): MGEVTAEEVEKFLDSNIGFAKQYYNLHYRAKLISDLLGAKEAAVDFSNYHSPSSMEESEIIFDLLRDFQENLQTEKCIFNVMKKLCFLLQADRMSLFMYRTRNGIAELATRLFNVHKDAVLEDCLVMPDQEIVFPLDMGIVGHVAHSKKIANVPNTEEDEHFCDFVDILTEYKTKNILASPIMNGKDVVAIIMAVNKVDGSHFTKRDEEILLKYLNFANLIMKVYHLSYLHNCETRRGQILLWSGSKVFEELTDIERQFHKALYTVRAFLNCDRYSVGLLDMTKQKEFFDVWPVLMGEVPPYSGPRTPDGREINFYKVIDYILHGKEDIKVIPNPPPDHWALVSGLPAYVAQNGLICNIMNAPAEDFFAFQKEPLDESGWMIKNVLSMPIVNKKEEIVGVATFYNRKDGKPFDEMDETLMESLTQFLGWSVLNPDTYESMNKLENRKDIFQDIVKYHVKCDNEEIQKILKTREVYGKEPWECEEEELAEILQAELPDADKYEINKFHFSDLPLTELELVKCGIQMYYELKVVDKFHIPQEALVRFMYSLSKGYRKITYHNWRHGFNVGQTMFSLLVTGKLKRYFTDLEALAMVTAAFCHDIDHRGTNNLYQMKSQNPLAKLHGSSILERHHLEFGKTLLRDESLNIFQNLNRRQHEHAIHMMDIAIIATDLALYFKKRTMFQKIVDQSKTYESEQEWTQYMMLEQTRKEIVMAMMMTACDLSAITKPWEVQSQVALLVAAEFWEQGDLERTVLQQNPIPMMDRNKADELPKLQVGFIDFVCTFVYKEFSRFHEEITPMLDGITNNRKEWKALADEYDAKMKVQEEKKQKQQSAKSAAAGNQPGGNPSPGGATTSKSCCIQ
Sequence of PDE6AB (P35913 whole entry): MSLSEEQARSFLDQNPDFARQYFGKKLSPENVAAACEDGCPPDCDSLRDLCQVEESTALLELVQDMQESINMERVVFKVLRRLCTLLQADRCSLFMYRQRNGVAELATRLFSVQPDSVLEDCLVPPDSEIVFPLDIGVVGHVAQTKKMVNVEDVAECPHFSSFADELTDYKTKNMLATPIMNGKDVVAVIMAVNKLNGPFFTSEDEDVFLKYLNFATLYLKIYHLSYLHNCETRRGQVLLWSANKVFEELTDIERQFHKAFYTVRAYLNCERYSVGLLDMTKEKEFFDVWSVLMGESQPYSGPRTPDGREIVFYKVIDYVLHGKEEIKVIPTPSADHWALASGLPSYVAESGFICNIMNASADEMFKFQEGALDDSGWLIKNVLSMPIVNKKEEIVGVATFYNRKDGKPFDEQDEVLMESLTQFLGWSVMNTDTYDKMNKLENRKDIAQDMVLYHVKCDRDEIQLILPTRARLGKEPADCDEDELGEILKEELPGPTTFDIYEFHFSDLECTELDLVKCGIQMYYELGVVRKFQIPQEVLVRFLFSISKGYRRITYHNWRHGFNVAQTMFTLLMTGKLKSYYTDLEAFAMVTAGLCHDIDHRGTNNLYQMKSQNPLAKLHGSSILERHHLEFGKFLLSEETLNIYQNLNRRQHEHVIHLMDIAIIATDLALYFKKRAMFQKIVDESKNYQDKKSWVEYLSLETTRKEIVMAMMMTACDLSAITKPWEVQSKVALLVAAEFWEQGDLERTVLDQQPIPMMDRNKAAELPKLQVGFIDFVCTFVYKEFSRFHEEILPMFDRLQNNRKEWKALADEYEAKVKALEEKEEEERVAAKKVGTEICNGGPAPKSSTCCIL

For the compound `Cc1nc2c(N3CCOCC3)nccn2c1-c1ccc(C2CCOCC2)nc1` [compound 25, 2-Methyl-8-morpholin-4-yl-3-[6-(tetrahydro-pyran-4-yl)-pyridin-3-yl]-imidazo[1,2-a]pyrazine], the IC50 in experiment [1] amounted to 112 µM; in experiment [2] it was 33.9 µM; in experiment [3], 96.5 µM. For the same compound, the values for the ED50 in experiment [4], in experiment [5] and in experiment [6] were 1.2 mg/kg, 2 mg/kg and 4.1 mg/kg, respectively.

A word on the IC50: it is the concentration that inhibits the measured activity by half. For orientation: ED50 means the dose that gives a 50% effect, or the effect in half of the subjects.
